# Laboratory results reported in patent US20200360426A1, “PROTOCOL AND COMPOSITION FOR SUPPRESSION OF ALLERGIC RESPONSES” (priority 2019, published 2020).
# Tested on: apheresis patients (allergic reaction to dextran sulfate)
# Text: The protocol begins with the oral administration of an antacid and a histamine blocker. […] The histamine blocker can be selected from a number of commercial alternatives. These include, specifically, H-1 blockers, such as loratadine, fexofenadine and azelastine.
# Centrally important and essential is the administration of magnesium, preferably magnesium IV, available as magnesium sulfate. Administration of magnesium sulfate, shortly in advance of apheresis, serves to relax the vascular system, and shift the patient or a sympathetic response to a parasympathetic vascular relaxation response. Magnesium realizes and calms the sympathetic FFF response, the survival instinct that is so prevalent in angioedema. […] While it can be infused over a longer period of more than one hour, a preferred protocol infuses it very rapidly. […] A drip in 100 ml-250 ml normal physiologic saline solution (Ns) or lactated Ringers solution (LR) has been employed. Other carriers, such as dextrose in water (5%) (D5W) or sterile water at smaller volumes, or similar physiologically compatible carriers may be used. A faster drip of not more than 30 minutes is preferable, and may be essential to intervene in and reduce ongoing severe reactions.
# When the apheresis is done, dextran sulfate exposure can still cause a reaction. […] Apheresis patients also get oxygen via canula, 2-4 liters a minute through the procedure. […]
smiles,measurement,setting,value
O=S(=O)([O-])[O-].[Mg+2] [magnesium sulfate],allergic reactions observed during dextran sulfate apheresis,"full protocol: ACE inhibitors stopped at least a week before, antacid and H-1 histamine blocker, magnesium sulfate IV no more than an hour before apheresis, at least 60 apheresis treatments, at least thirty patients",no issues and little or no allergic reactions were observed
same,tolerance of Liposorber apheresis treatment,"seven patients with previous anaphylactoid shock reaction to Liposorber even with IV steroids, magnesium sulfate without any supportive or additional treatments",allowed all 7 patients to tolerate the treatment
